Test results taken from ChEMBL document CHEMBL3885861, “Open TG-GATES”.

Species on record: Rattus norvegicus
Test: Open TG-GATES - Regimen: Single
Format: toxicity, organism-based, Sprague-Dawley
Set-up: regimen Single, gender Male, age 6 weeks
Conditions: in vivo, ip, 450 mg/kg, route intraperitoneal injection, dose level Middle; for APTT / Bas / Eos / Fbg / Hb / Ht / Lym / MCH / MCHC / MCV / Mono / Neu / PT / Plat / RBC / Ret / WBC: tissue Blood; for KIDNEY_L / KIDNEY_R / KIDNEY_TOTAL: tissue Kidney; for LIVER: tissue Liver; for A/G / ALP / ALT / AST / BUN / CRE / Ca / Cl / DBIL / GLC / IP / K / LDH / Na / PL / RALB / TBIL / TC / TG / TP / gamma-GTP: tissue Plasma

CCCCS(=N)(=O)CCC(N)C(=O)O (configuration not stated) [BUTHIONINE SULFOXIMINE]
TERMINAL_BW (3 h): 218.6 g | APTT (3 h): 16.6 s | Bas (3 h): 0% | Eos (3 h): 0.8% | Fbg (3 h): 216.4 mg/dL | Hb (3 h): 13.3 g/dL | Ht (3 h): 39.8% | Lym (3 h): 69% | MCH (3 h): 21.9 pg | MCHC (3 h): 33.3% | MCV (3 h): 65.7 fL | Mono (3 h): 7.8% | Neu (3 h): 22.2% | PT (3 h): 12.1 s | Plat (3 h): 112.2 x10_4/uL | RBC (3 h): 606.8 x10_4/ul | Ret (3 h): 8.5% | WBC (3 h): 79.6 x10_2/uL | KIDNEY_L (3 h): 1 g | KIDNEY_R (3 h): 1 g | KIDNEY_TOTAL (3 h): 2 g | LIVER (3 h): 10.2 g | A/G (3 h): 2.1 | ALP (3 h): 794 IU/L | ALT (3 h): 42.6 IU/L | AST (3 h): 72 IU/L | BUN (3 h): 14 mg/dL | CRE (3 h): 0.5 mg/dL | Ca (3 h): 11 mg/dL | Cl (3 h): 104 meq/L | DBIL (3 h): 0.062 mg/dL | GLC (3 h): 191.2 mg/dL | IP (3 h): 10.5 mg/dL | K (3 h): 4.5 meq/L | LDH (3 h): 93 IU/L | Na (3 h): 140.2 meq/L | PL (3 h): 137.4 mg/dL | RALB (3 h): 3.7 g/dL | TBIL (3 h): 0.3 mg/dL | TC (3 h): 71.4 mg/dL | TG (3 h): 62.8 mg/dL | TP (3 h): 5.5 g/dL | gamma-GTP (3 h): 1.8 IU/L | TERMINAL_BW (6 h): 217.2 g | APTT (6 h): 16.6 s | Bas (6 h): 0% | Eos (6 h): 0.8% | Fbg (6 h): 221.2 mg/dL | Hb (6 h): 13.4 g/dL | Ht (6 h): 40% | Lym (6 h): 57.6% | MCH (6 h): 22 pg | MCHC (6 h): 33.5% | MCV (6 h): 65.6 fL | Mono (6 h): 4.6% | Neu (6 h): 37.2% | PT (6 h): 11 s | Plat (6 h): 108.9 x10_4/uL | RBC (6 h): 609.8 x10_4/ul | Ret (6 h): 8.3% | WBC (6 h): 96.1 x10_2/uL | KIDNEY_L (6 h): 1 g | KIDNEY_R (6 h): 1 g | KIDNEY_TOTAL (6 h): 2 g | LIVER (6 h): 9.4 g | A/G (6 h): 2 | ALP (6 h): 837.2 IU/L | ALT (6 h): 32 IU/L | AST (6 h): 68.8 IU/L | BUN (6 h): 11.4 mg/dL | CRE (6 h): 0.7 mg/dL | Ca (6 h): 10.8 mg/dL | Cl (6 h): 104.8 meq/L | DBIL (6 h): 0.016 mg/dL | GLC (6 h): 193.2 mg/dL | IP (6 h): 10 mg/dL | K (6 h): 4.6 meq/L | LDH (6 h): 100.6 IU/L | Na (6 h): 140.4 meq/L | PL (6 h): 129.8 mg/dL | RALB (6 h): 3.5 g/dL | TBIL (6 h): 0.3 mg/dL | TC (6 h): 73.2 mg/dL | TG (6 h): 43.2 mg/dL | TP (6 h): 5.3 g/dL | gamma-GTP (6 h): 1.2 IU/L | TERMINAL_BW (9 h): 210.3 g | APTT (9 h): 17 s | Bas (9 h): 0% | Eos (9 h): 0.8% | Fbg (9 h): 253 mg/dL | Hb (9 h): 13.3 g/dL | Ht (9 h): 40% | Lym (9 h): 63.2% | MCH (9 h): 21.4 pg | MCHC (9 h): 33.2% | MCV (9 h): 64.5 fL | Mono (9 h): 3.8% | Neu (9 h): 32.2% | PT (9 h): 11 s | Plat (9 h): 113.1 x10_4/uL | RBC (9 h): 620 x10_4/ul | Ret (9 h): 8.4% | WBC (9 h): 93.4 x10_2/uL | KIDNEY_L (9 h): 1 g | KIDNEY_R (9 h): 1 g | KIDNEY_TOTAL (9 h): 1.9 g | LIVER (9 h): 8.4 g | A/G (9 h): 2.1 | ALP (9 h): 759.2 IU/L | ALT (9 h): 31.2 IU/L | AST (9 h): 61 IU/L | BUN (9 h): 11.8 mg/dL | CRE (9 h): 0.6 mg/dL | Ca (9 h): 11 mg/dL | Cl (9 h): 107 meq/L | DBIL (9 h): 0.01 mg/dL | GLC (9 h): 196.2 mg/dL | IP (9 h): 9.6 mg/dL | K (9 h): 4.8 meq/L | LDH (9 h): 79.4 IU/L | Na (9 h): 139.2 meq/L | PL (9 h): 144.2 mg/dL | RALB (9 h): 3.7 g/dL | TBIL (9 h): 0.3 mg/dL | TC (9 h): 84.4 mg/dL | TG (9 h): 25 mg/dL | TP (9 h): 5.5 g/dL | gamma-GTP (9 h): 1.2 IU/L | TERMINAL_BW (24 h): 229.8 g | APTT (24 h): 16.6 s | Bas (24 h): 0% | Eos (24 h): 1.2% | Fbg (24 h): 254 mg/dL | Hb (24 h): 13.2 g/dL | Ht (24 h): 39.6% | Lym (24 h): 70.8% | MCH (24 h): 21.4 pg | MCHC (24 h): 33.2% | MCV (24 h): 64.4 fL | Mono (24 h): 9.4% | Neu (24 h): 18.8% | PT (24 h): 11.5 s | Plat (24 h): 126.4 x10_4/uL | RBC (24 h): 616.6 x10_4/ul | Ret (24 h): 8.8% | WBC (24 h): 85.5 x10_2/uL | KIDNEY_L (24 h): 1 g | KIDNEY_R (24 h): 1.1 g | KIDNEY_TOTAL (24 h): 2.1 g | LIVER (24 h): 11.1 g | A/G (24 h): 1.8 | ALP (24 h): 1015.4 IU/L | ALT (24 h): 30.2 IU/L | AST (24 h): 60 IU/L | BUN (24 h): 19.2 mg/dL | CRE (24 h): 0.5 mg/dL | Ca (24 h): 11.1 mg/dL | Cl (24 h): 104.6 meq/L | DBIL (24 h): 0.008 mg/dL | GLC (24 h): 196.6 mg/dL | IP (24 h): 8.3 mg/dL | K (24 h): 4.4 meq/L | LDH (24 h): 98 IU/L | Na (24 h): 140 meq/L | PL (24 h): 149.4 mg/dL | RALB (24 h): 3.7 g/dL | TBIL (24 h): 0.3 mg/dL | TC (24 h): 80.6 mg/dL | TG (24 h): 95.2 mg/dL | TP (24 h): 5.8 g/dL | gamma-GTP (24 h): 1.6 IU/L
